Test results from patent US9365522B2, “Pyrazole amide derivative” (AMGEN INC., priority 2015, dated 2016).

Biological target: T1, human RORγ-LBD (Homo sapiens, UniProt P51449)
T1 construct: made in house; host or cells: E. coli (BL-21)
T1 sequence (P51449 262-518): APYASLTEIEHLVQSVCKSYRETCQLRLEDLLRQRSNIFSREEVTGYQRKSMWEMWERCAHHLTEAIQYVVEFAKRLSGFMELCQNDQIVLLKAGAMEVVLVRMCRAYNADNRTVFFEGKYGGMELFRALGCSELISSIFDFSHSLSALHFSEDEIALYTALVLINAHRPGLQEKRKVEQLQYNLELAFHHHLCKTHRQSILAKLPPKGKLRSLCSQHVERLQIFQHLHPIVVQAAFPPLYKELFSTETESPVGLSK
Experiment: ROR gamma coactivator peptide recruitment Alphascreen assay (RORγ-LBD binding to GRIP1 coactivator peptide)
Assay type: biochemical
Conditions: 5 nM human RORγ-LBD, 30 nM 7-β-hydroxycholesterol, 50 nM biotinylated GRIP1 coactivator peptide, overnight incubation at room temperature; read-out: result (pIC50, RORγ coactivator peptide recruitment Alphascreen assay) (converted)
In short: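 His/Flag-tagged human RORγ-LBD (aa 262-518, E. coli-expressed, 5 nM) with agonist 7-β-hydroxycholesterol (30 nM) and biotinylated GRIP1 LXXLL peptide (50 nM) in HEPES pH 7.4 buffer, 2.5% DMSO. Compound 1-in-2 dilutions; Alphascreen bead signal read after overnight incubation at room temperature; pIC50 calculated.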

Structure (SMILES)	IC50 [nM]
CC(C)(C)CN(C[C@H](O)c1c(Cl)cccc1Cl)C(=O)c1cnn([C@H]2CC[C@H](C(=O)O)CC2)c1C(F)(F)F [Example 573, trans-4-(4-(((2R)-2-(2,6-dichlorophenyl)-2-hydroxyethyl)(2,2-dimethylpropyl)carbamoyl)-5-(trifluoromethyl)-1H-pyrazol-1-yl)cyclohexanecarboxylic acid]	79.4
CC(C)(C)CN(C[C@@H](O)c1c(Cl)cccc1Cl)C(=O)c1cnn([C@H]2CC[C@H](C(=O)O)CC2)c1C(F)(F)F [Example 574, trans-4-(4-(((2S)-2-(2,6-dichlorophenyl)-2-hydroxyethyl)(2,2-dimethylpropyl)carbamoyl)-5-(trifluoromethyl)-1H-pyrazol-1-yl)cyclohexanecarboxylic acid]	2570
COc1cc(Cl)c(C(=O)CN(C(=O)c2cnn([C@H]3CC[C@H](C(=O)O)CC3)c2C(F)(F)F)C2CCC(C)(C)CC2)c(Cl)c1 [Example 575, trans-4-(4-((2-(2,6-dichloro-4-methoxyphenyl)-2-oxoethyl)(4,4-dimethylcyclohexyl)carbamoyl)-5-(trifluoromethyl)-1H-pyrazol-1-yl)cyclohexanecarboxylic acid]	17
C[C@]1(C(=O)O)CC[C@H](n2ncc(C(=O)N3CC4(CC=CC4)C[C@@H]3Cc3c(Cl)cncc3Cl)c2C(F)(F)F)CC1 [Example 576, trans-4-(4-(((3R)-3-((3,5-dichloro-4-pyridinyl)methyl)-2-azaspiro[4.4]non-7-en-2-yl)carbonyl)-5-(trifluoromethyl)-1H-pyrazol-1-yl)-1-methylcyclohexanecarboxylic acid]	34.7
CC1(CN(CC(=O)c2c(Cl)cncc2Cl)C(=O)c2cnn([C@H]3CC[C@](C)(C(=O)O)CC3)c2C(F)(F)F)CC1 [Example 577, trans-4-(4-((2-(3,5-dichloro-4-pyridinyl)-2-oxoethyl)((1-methylcyclopropyl)methyl)carbamoyl)-5-(trifluoromethyl)-1H-pyrazol-1-yl)-1-methylcyclohexanecarboxylic acid]	11.7
CC1(C)CC[C@@H]1N(CC(=O)c1c(Cl)cncc1Cl)C(=O)c1cnn([C@H]2CC[C@](C)(C(=O)O)CC2)c1C(F)(F)F [Example 578, trans-4-(4-((2-(3,5-dichloro-4-pyridinyl)-2-oxoethyl)((1S)-2,2-dimethylcyclobutyl)carbamoyl)-5-(trifluoromethyl)-1H-pyrazol-1-yl)-1-methylcyclohexanecarboxylic acid]	100
COc1cc(Cl)c(C(=O)CN(C(=O)c2cnn([C@H]3CC[C@](C)(C(=O)O)CC3)c2C(F)(F)F)C2CCC(C)(C)CC2)c(Cl)c1 [Example 579, trans-4-(4-((2-(2,6-dichloro-4-methoxyphenyl)-2-oxoethyl)(4,4-dimethylcyclohexyl)carbamoyl)-5-(trifluoromethyl)-1H-pyrazol-1-yl)-1-methylcyclohexanecarboxylic acid]	4.27
COc1cc(Cl)c(C(=O)CN(CC2CC(C)(C)C2)C(=O)c2cnn([C@H]3CC[C@H](C(=O)O)CC3)c2C(F)(F)F)c(Cl)c1 [Example 580, trans-4-(4-((2-(2,6-dichloro-4-methoxyphenyl)-2-oxoethyl)((3,3-dimethylcyclobutyl)methyl)carbamoyl)-5-(trifluoromethyl)-1H-pyrazol-1-yl)cyclohexanecarboxylic acid]	5.01
COc1cc(Cl)c(C(=O)CN(CC2CC(C)(C)C2)C(=O)c2cnn([C@H]3CC[C@](C)(C(=O)O)CC3)c2C(F)(F)F)c(Cl)c1 [Example 581]	3.47
C[C@]1(C(=O)O)CC[C@H](n2ncc(C(=O)N3CC4(CCCC4)C[C@@H]3Cc3c(Cl)cncc3Cl)c2C(F)(F)F)CC1 [Example 582, trans-4-(4-(((3R)-3-((3,5-dichloro-4-pyridinyl)methyl)-2-azaspiro[4.4]non-2-yl)carbonyl)-5-(trifluoromethyl)-1H-pyrazol-1-yl)-1-methylcyclohexanecarboxylic acid]	22.9
Cc1cc(Cl)c(C(=O)CN(CC2CC3(CC3)C2)C(=O)c2cnn([C@H]3CC[C@](C)(C(=O)O)CC3)c2C(F)(F)F)c(Cl)c1 [Example 583, trans-4-(4-((2-(2,6-dichloro-4-methylphenyl)-2-oxoethyl)(spiro[2.3]hex-5-ylmethyl)carbamoyl)-5-(trifluoromethyl)-1H-pyrazol-1-yl)-1-methylcyclohexanecarboxylic acid]	2.4
COc1cc(Cl)c(C(=O)CN(CC2(F)CCCC2)C(=O)c2cnn([C@H]3CC[C@](C)(C(=O)O)CC3)c2C(F)(F)F)c(Cl)c1 [Example 584, trans-4-(4-((2-(2,6-dichloro-4-methoxyphenyl)-2-oxoethyl)((1-fluorocyclopentyl)methyl)carbamoyl)-5-(trifluoromethyl)-1H-pyrazol-1-yl)-1-methylcyclohexanecarboxylic acid]	5.75
CC1(C)CC(CN(CC(=O)c2ccccc2Br)C(=O)c2cnn([C@H]3CC[C@@H](C(=O)O)CC3)c2C(F)(F)F)C1 [Example 585, cis-4-(4-((2-(2-bromophenyl)-2-oxoethyl)((3,3-dimethylcyclobutyl)methyl)carbamoyl)-5-(trifluoromethyl)-1H-pyrazol-1-yl)cyclohexanecarboxylic acid]	69.2
CC1(C)CC(N(CC(=O)c2c(Cl)cncc2Cl)C(=O)c2cnn([C@H]3CC[C@](C)(C(=O)O)CC3)c2C(F)(F)F)C1 [Example 587, trans-4-(4-((2-(3,5-dichloro-4-pyridinyl)-2-oxoethyl)(3,3-dimethylcyclobutyl)carbamoyl)-5-(trifluoromethyl)-1H-pyrazol-1-yl)-1-methylcyclohexanecarboxylic acid]	67.6
CC1(CN(CC(=O)c2c(Cl)cncc2Cl)C(=O)c2cnn([C@H]3CC[C@](C)(C(=O)O)CC3)c2C(F)(F)F)CCCCC1 [Example 588, trans-4-(4-((2-(3,5-dichloro-4-pyridinyl)-2-oxoethyl)((1-methylcyclohexyl)methyl)carbamoyl)-5-(trifluoromethyl)-1H-pyrazol-1-yl)-1-methylcyclohexanecarboxylic acid]	3.31
CC1(C)CC(CN(CC(=O)c2ccccc2Br)C(=O)c2cnn([C@H]3CC[C@](C)(C(=O)O)CC3)c2C(F)(F)F)C1 [Example 589, trans-4-(4-((2-(2-bromophenyl)-2-oxoethyl)((3,3-dimethylcyclobutyl)methyl)carbamoyl)-5-(trifluoromethyl)-1H-pyrazol-1-yl)-1-methylcyclohexanecarboxylic acid]	42.7
COc1cc(Cl)c(C(=O)CN(CC2(F)CCCC2)C(=O)c2cnn([C@H]3CC[C@@H](C(=O)O)CC3)c2C(F)(F)F)c(Cl)c1 [Example 590, cis-4-(4-((2-(2,6-dichloro-4-methoxyphenyl)-2-oxoethyl)((1-fluorocyclopentyl)methyl)carbamoyl)-5-(trifluoromethyl)-1H-pyrazol-1-yl)cyclohexanecarboxylic acid]	174
CC1(CN(CCc2c(Cl)cncc2Cl)C(=O)c2cnn([C@H]3CC[C@](C)(C(=O)O)CC3)c2C(F)(F)F)CCCC1 [Example 591, trans-4-(4-((2-(3,5-dichloro-4-pyridinyl)ethyl)((1-methylcyclopentyl)methyl)carbamoyl)-5-(trifluoromethyl)-1H-pyrazol-1-yl)-1-methylcyclohexanecarboxylic acid]	2.09
C[C@]1(C(=O)O)CC[C@H](n2ncc(C(=O)N(CC(=O)c3c(Cl)cncc3Cl)CC3CCCC3)c2C(F)(F)F)CC1 [Example 592, trans-4-(4-((cyclopentylmethyl)(2-(3,5-dichloro-4-pyridinyl)-2-oxoethyl)carbamoyl)-5-(trifluoromethyl)-1H-pyrazol-1-yl)-1-methylcyclohexanecarboxylic acid]	6.76
C[C@]1(C(=O)O)CC[C@H](n2ncc(C(=O)N(CC(=O)c3c(Cl)cncc3Cl)CC3(F)CC3)c2C(F)(F)F)CC1 [Example 593, trans-4-(4-((2-(3,5-dichloro-4-pyridinyl)-2-oxoethyl)((1-fluorocyclopropyl)methyl)carbamoyl)-5-(trifluoromethyl)-1H-pyrazol-1-yl)-1-methylcyclohexanecarboxylic acid]	33.1
C[C@]1(C(=O)O)CC[C@H](n2ncc(C(=O)N(CC(=O)c3c(Cl)cncc3Cl)CC3CC(F)(F)C3)c2C(F)(F)F)CC1 [Example 594, trans-4-(4-((2-(3,5-dichloro-4-pyridinyl)-2-oxoethyl)((3,3-difluorocyclobutyl)methyl)carbamoyl)-5-(trifluoromethyl)-1H-pyrazol-1-yl)-1-methylcyclohexanecarboxylic acid]	74.1
CC1(C)CC(CN(CC(=O)c2c(F)cccc2Cl)C(=O)c2cnn([C@H]3CC[C@](C)(C(=O)O)CC3)c2C(F)(F)F)C1 [Example 595, trans-4-(4-((2-(2-chloro-6-fluorophenyl)-2-oxoethyl)((3,3-dimethylcyclobutyl)methyl)carbamoyl)-5-(trifluoromethyl)-1H-pyrazol-1-yl)-1-methylcyclohexanecarboxylic acid]	5.62
CC1(C)CC(CN(CC(=O)c2c(F)cccc2Cl)C(=O)c2cnn([C@H]3CC[C@@H](C(=O)O)CC3)c2C(F)(F)F)C1 [Example 596, cis-4-(4-((2-(2-chloro-6-fluorophenyl)-2-oxoethyl)((3,3-dimethylcyclobutyl)methyl)carbamoyl)-5-(trifluoromethyl)-1H-pyrazol-1-yl)cyclohexanecarboxylic acid]	151
